Measured values as given in patent US20250332178A1, “METHODS OF TREATING MYCOBACTERIAL INFECTIONS USING TETRACYCLINE COMPOUNDS” (priority 2018, published 2025).
In brackets after ≈: the same amount, converted by molar mass.

These compounds were tested on H37Rv strain of Mycobacterium tuberculosis (assay: MIC against H37Rv strain). Settings: H37Rv.
Format: cell-based
Protocol: The purpose of this study was to test activity of selected tetracycline compounds against the H37Rv strain of Mycobacterium tuberculosis. Minimum inhibitory concentrations (MIC) of different tetracycline compounds against H37Rv strain were determined and are shown in Table 8.

CC(C)CNCc1cc(N(C)C)c2c(c1O)C(=O)C1=C(O)[C@]3(O)C(=O)C(C(N)=O)=C(O)[C@@H](N(C)C)[C@@H]3C[C@@H]1C2 [Compound 14] showed an MIC of 16 mg/L (≈ 29.5 µM).

Same assay, conditions: Mycobacterium tuberculosis, H37RV

Point of comparison: CC(CF)NCc1cc(N(C)C)c2c(c1O)C(=O)C1=C(O)[C@]3(O)C(=O)C(C(N)=O)=C(O)C(N(C)C)[C@@H]3C[C@@H]1C2 (stereo partly shown) [Compound 42], MIC 32 mg/L (≈ 58.5 µM). Against it:
- CN(C)c1cc(CNC(=O)Oc2ccccc2)c(O)c2c1C[C@H]1C[C@H]3[C@H](N(C)C)C(O)=C(C(N)=O)C(=O)[C@@]3(O)C(O)=C1C2=O [Compound 10] — higher, > 32 mg/L
- Cc1ccc(OC(=O)NCc2cc(N(C)C)c3c(c2O)C(=O)C2=C(O)[C@]4(O)C(=O)C(C(N)=O)=C(O)[C@@H](N(C)C)[C@@H]4C[C@@H]2C3)cc1 [Compound 20] — higher, > 32 mg/L
- CN(C)c1cc(CNC(=O)Oc2ccc(Br)cc2)c(O)c2c1C[C@H]1C[C@H]3[C@H](N(C)C)C(O)=C(C(N)=O)C(=O)[C@@]3(O)C(O)=C1C2=O [Compound 21] — 2-fold lower, 16 mg/L (≈ 23.3 µM)
- CN(C)c1cc(CNC(=O)Oc2ccc(F)cc2)c(O)c2c1C[C@H]1C[C@H]3[C@H](N(C)C)C(O)=C(C(N)=O)C(=O)[C@@]3(O)C(O)=C1C2=O [Compound 23] — the same, 32 mg/L (≈ 51.2 µM)

Same assay, conditions: Mycobacterium tuberculosis, H37RV; read-out: MIC

Point of comparison: CC(C)CNCc1ccc2c(c1O)C(=O)C1=C(O)[C@]3(O)C(=O)C(C(N)=O)=C(O)[C@@H](N(C)C)[C@@H]3[C@@H](O)[C@@H]1[C@H]2C [Compound 34], MIC 32 mg/L (≈ 60.4 µM). Against it:
- CCc1cc(CNC(=O)c2cccnc2)c(O)c2c1C[C@H]1C[C@H]3[C@H](N(C)C)C(O)=C(C(N)=O)C(=O)[C@@]3(O)C(O)=C1C2=O [Compound 1] — higher, > 32 mg/L
- CN(C)[C@@H]1C(O)=C(C(N)=O)C(=O)[C@@]2(O)C(O)=C3C(=O)c4c(O)c(CNC(=O)c5cccnc5)cc(CCC5CCCCC5)c4C[C@H]3C[C@@H]12 [Compound 2] — higher, > 32 mg/L
- CC(=O)NCc1cc(N(C)C)c2c(c1O)C(=O)C1=C(O)[C@]3(O)C(=O)C(C(N)=O)=C(O)C(N(C)C)[C@@H]3C[C@@H]1C2 (stereo partly shown) [Compound 3] — higher, > 32 mg/L
- CCc1cc(CC)c2c(c1O)C(=O)C1=C(O)[C@]3(O)C(=O)C(C(N)=O)=C(O)[C@@H](N(C)C)[C@@H]3C[C@@H]1C2 [Compound 4] — higher, > 32 mg/L
- CN(C)c1cc(CNCCc2ccccc2)c(O)c2c1C[C@H]1C[C@H]3C(N(C)C)C(O)=C(C(N)=O)C(=O)[C@@]3(O)C(O)=C1C2=O (stereo partly shown) [Compound 5] — higher, > 32 mg/L
- CCc1cc(CNC(C)=O)c(O)c2c1C[C@H]1C[C@H]3C(N(C)C)C(O)=C(C(N)=O)C(=O)[C@@]3(O)C(O)=C1C2=O (stereo partly shown) [Compound 6] — higher, > 32 mg/L
- CN(C)c1cc(CNC(=O)OCC(C)(C)C)c(O)c2c1C[C@H]1C[C@H]3[C@H](N(C)C)C(O)=C(C(N)=O)C(=O)[C@@]3(O)C(O)=C1C2=O [Compound 8] — higher, > 32 mg/L
- C=CCCOC(=O)NCc1cc(N(C)C)c2c(c1O)C(=O)C1=C(O)[C@]3(O)C(=O)C(C(N)=O)=C(O)[C@@H](N(C)C)[C@@H]3C[C@@H]1C2 [Compound 9] — higher, > 32 mg/L
- CC(C)COC(=O)NCc1cc(N(C)C)c2c(c1O)C(=O)C1=C(O)[C@]3(O)C(=O)C(C(N)=O)=C(O)[C@H](N(C)C)[C@@H]3C[C@@H]1C2 [Compound 11] — higher, > 32 mg/L
- CCCCOC(=O)NCc1cc(N(C)C)c2c(c1O)C(=O)C1=C(O)[C@]3(O)C(=O)C(C(N)=O)=C(O)[C@H](N(C)C)[C@@H]3C[C@@H]1C2 [Compound 12] — higher, > 32 mg/L
- CCOC(=O)NCc1cc(N(C)C)c2c(c1O)C(=O)C1=C(O)[C@]3(O)C(=O)C(C(N)=O)=C(O)[C@H](N(C)C)[C@@H]3C[C@@H]1C2 [Compound 13] — 2-fold lower, 16 mg/L (≈ 28.6 µM)
- CC(C)CNCc1cc(N(C)C)c2c(c1O)C(=O)C1=C(O)[C@]3(O)C(=O)C(C(N)=O)=C(O)[C@@H](N(C)C)[C@@H]3C[C@@H]1C2 [Compound 14] — higher, > 32 mg/L
- CCCCNCc1cc(N(C)C)c2c(c1O)C(=O)C1=C(O)[C@]3(O)C(=O)C(C(N)=O)=C(O)[C@H](N(C)C)[C@@H]3C[C@@H]1C2 [Compound 15] — the same, 32 mg/L (≈ 59 µM)
- CCCCN(CCCC)Cc1cc(N(C)C)c2c(c1O)C(=O)C1=C(O)[C@]3(O)C(=O)C(C(N)=O)=C(O)C(N(C)C)[C@@H]3C[C@@H]1C2 (stereo partly shown) [Compound 16] — higher, > 32 mg/L
- CN(C)c1cc(CNCC(C)(C)C)c(O)c2c1C[C@H]1C[C@H]3[C@H](N(C)C)C(O)=C(C(N)=O)C(=O)[C@@]3(O)C(O)=C1C2=O [Compound 17] — the same, 32 mg/L (≈ 57.5 µM)
- CCCCCCOC(=O)NCc1cc(N(C)C)c2c(c1O)C(=O)C1=C(O)[C@]3(O)C(=O)C(C(N)=O)=C(O)[C@@H](N(C)C)[C@@H]3C[C@@H]1C2 [Compound 18] — higher, > 32 mg/L
- COCCOC(=O)NCc1cc(N(C)C)c2c(c1O)C(=O)C1=C(O)[C@]3(O)C(=O)C(C(N)=O)=C(O)[C@@H](N(C)C)[C@@H]3C[C@@H]1C2 [Compound 19] — higher, > 32 mg/L
- CN(C)c1cc(CNC(=O)OCC(Cl)(Cl)Cl)c(O)c2c1C[C@H]1C[C@H]3[C@H](N(C)C)C(O)=C(C(N)=O)C(=O)[C@@]3(O)C(O)=C1C2=O [Compound 22] — higher, > 32 mg/L
- CN(C)c1cc(CNC(=O)Nc2ccc3c(c2)OCO3)c(O)c2c1C[C@H]1C[C@H]3[C@H](N(C)C)C(O)=C(C(N)=O)C(=O)[C@@]3(O)C(O)=C1C2=O [Compound 24] — higher, > 32 mg/L
- CC(=O)c1ccc(NC(=O)NCc2cc(N(C)C)c3c(c2O)C(=O)C2=C(O)[C@]4(O)C(=O)C(C(N)=O)=C(O)[C@@H](N(C)C)[C@@H]4C[C@@H]2C3)cc1 [Compound 25] — higher, > 32 mg/L
- CN(C)c1ccc(NC(=O)NCc2cc(N(C)C)c3c(c2O)C(=O)C2=C(O)[C@]4(O)C(=O)C(C(N)=O)=C(O)[C@@H](N(C)C)[C@@H]4C[C@@H]2C3)cc1 [Compound 26] — the same, 32 mg/L (≈ 49.3 µM)
- CN(C)c1cc(CNC(=O)Nc2ccc(OC(F)(F)F)cc2)c(O)c2c1C[C@H]1C[C@H]3[C@H](N(C)C)C(O)=C(C(N)=O)C(=O)[C@@]3(O)C(O)=C1C2=O [Compound 27] — 4-fold lower, 8 mg/L (≈ 11.6 µM)
- CN(C)c1ccc(-c2cc(CN)c(O)c3c2C[C@H]2C[C@H]4[C@@H](N(C)C)C(O)=C(C(N)=O)C(=O)[C@@]4(O)C(O)=C2C3=O)cc1 [Compound 28] — higher, > 32 mg/L
- CN(C)c1cc(CNCC(C)(C)C)c(O)c2c1C[C@H]1C[C@H]3C(N(C)C)C(O)=C(C(N)=O)C(=O)[C@@]3(O)C(O)=C1C2=O (stereo partly shown) [Compound 29] — the same, 32 mg/L (≈ 57.5 µM)
- CCc1cc(CNCC(C)C)c(O)c2c1C[C@H]1C[C@H]3[C@H](N(C)C)C(O)=C(C(N)=O)C(=O)[C@@]3(O)C(O)=C1C2=O [Compound 30] — higher, > 32 mg/L
- CN(C)C1C(O)=C(C(N)=O)C(=O)[C@@]2(O)C(O)=C3C(=O)c4c(O)c(CNC(=O)C5CC5)cc(-c5ccc(C(C)(C)C)cc5)c4C[C@H]3C[C@@H]12 (stereo partly shown) [Compound 31] — higher, > 32 mg/L
- CN(C)[C@H]1C(O)=C(C(N)=O)C(=O)[C@@]2(O)C(O)=C3C(=O)c4c(O)c(CN)cc(-c5ccccc5)c4C[C@H]3C[C@@H]12 [Compound 32] — higher, > 32 mg/L
- C[C@H]1c2ccc(CNCC(C)(C)C)c(O)c2C(=O)C2=C(O)[C@]3(O)C(=O)C(C(N)=O)=C(O)[C@@H](N(C)C)[C@@H]3[C@@H](O)[C@@H]21 [Compound 33] — higher, > 32 mg/L
- C[C@H]1c2ccc(CNCCc3ccccc3)c(O)c2C(=O)C2=C(O)[C@]3(O)C(=O)C(C(N)=O)=C(O)[C@@H](N(C)C)[C@@H]3[C@@H](O)[C@@H]21 [Compound 35] — higher, > 32 mg/L
- CCc1cc(CNC(=O)CN(C)C)c(O)c2c1C[C@H]1C[C@H]3[C@@H](N(C)C)C(O)=C(C(N)=O)C(=O)[C@@]3(O)C(O)=C1C2=O [Compound 36] — the same, 32 mg/L (≈ 57.5 µM)
- C[C@H]1c2ccc(CNC(=O)c3ccccc3)c(O)c2C(=O)C2=C(O)[C@]3(O)C(=O)C(C(N)=O)=C(O)[C@@H](N(C)C)[C@@H]3[C@@H](O)[C@@H]21 [Compound 37] — higher, > 32 mg/L
- CN(C)c1cc(CNCc2cccn2C)c(O)c2c1C[C@H]1C[C@H]3[C@H](N(C)C)C(O)=C(C(N)=O)C(=O)[C@@]3(O)C(O)=C1C2=O [Compound 38] — higher, > 32 mg/L
- CC(C)NCc1cc(N(C)C)c2c(c1O)C(=O)C1=C(O)[C@]3(O)C(=O)C(C(N)=O)=C(O)[C@H](N(C)C)[C@@H]3C[C@@H]1C2 [Compound 39] — higher, > 32 mg/L
- CN(C)Cc1cc(N(C)C)c2c(c1O)C(=O)C1=C(O)[C@]3(O)C(=O)C(C(N)=O)=C(O)[C@@H](N(C)C)[C@@H]3C[C@@H]1C2 [Compound 40] — the same, 32 mg/L (≈ 62.2 µM)
- Cc1cc(CNCc2cc(N(C)C)c3c(c2O)C(=O)C2=C(O)[C@]4(O)C(=O)C(C(N)=O)=C(O)[C@@H](N(C)C)[C@@H]4C[C@@H]2C3)oc1C [Compound 41] — higher, > 32 mg/L
- CN(C)c1cc(CNC2CCCC2)c(O)c2c1C[C@H]1C[C@H]3C(N(C)C)C(O)=C(C(N)=O)C(=O)[C@@]3(O)C(O)=C1C2=O (stereo partly shown) [Compound 43] — higher, > 32 mg/L
- CC(CCO)NCc1cc(N(C)C)c2c(c1O)C(=O)C1=C(O)[C@]3(O)C(=O)C(C(N)=O)=C(O)[C@H](N(C)C)[C@@H]3C[C@@H]1C2 (stereo partly shown) [Compound 44] — higher, > 32 mg/L
- CC(C)CNCc1cc(N(C)C)c2c(c1O)C(=O)C1=C(O)[C@]3(O)C(=O)C(C(N)=O)=C(O)C(N(C)C)[C@@H]3C[C@@H]1C2 (stereo partly shown) [Compound 45] — the same, 32 mg/L (≈ 59 µM)
- CCNCC(=O)NCc1cc(N(C)C)c2c(c1O)C(=O)C1=C(O)[C@]3(O)C(=O)C(C(N)=O)=C(O)[C@H](N(C)C)[C@@H]3C[C@@H]1C2 [Compound 46] — the same, 32 mg/L (≈ 56 µM)
- CN1CCC(NCc2cc(N(C)C)c3c(c2O)C(=O)C2=C(O)[C@]4(O)C(=O)C(C(N)=O)=C(O)[C@@H](N(C)C)[C@@H]4C[C@@H]2C3)CC1 [Compound 47] — higher, > 32 mg/L
- CN(C)c1cc(CNC(=O)C(Cc2ccccc2)N(C)C)c(O)c2c1C[C@H]1C[C@H]3[C@@H](N(C)C)C(O)=C(C(N)=O)C(=O)[C@@]3(O)C(O)=C1C2=O (stereo partly shown) [Compound 48] — higher, > 32 mg/L
- CN(C)c1cc(CNCC2CCNCC2)c(O)c2c1C[C@H]1C[C@H]3[C@@H](N(C)C)C(O)=C(C(N)=O)C(=O)[C@@]3(O)C(O)=C1C2=O [Compound 49] — higher, > 32 mg/L
